According to patent US7799824B2, “Quaternary salt CCR2 antagonists” (OraPharma, Inc., priority 2004, dated 2010):
pIC50: −log10 of the molar value.

Target: T1, CCR2 (Homo sapiens, UniProt P41597)
T1 sequence (P41597 1-360 isoform P41597-2): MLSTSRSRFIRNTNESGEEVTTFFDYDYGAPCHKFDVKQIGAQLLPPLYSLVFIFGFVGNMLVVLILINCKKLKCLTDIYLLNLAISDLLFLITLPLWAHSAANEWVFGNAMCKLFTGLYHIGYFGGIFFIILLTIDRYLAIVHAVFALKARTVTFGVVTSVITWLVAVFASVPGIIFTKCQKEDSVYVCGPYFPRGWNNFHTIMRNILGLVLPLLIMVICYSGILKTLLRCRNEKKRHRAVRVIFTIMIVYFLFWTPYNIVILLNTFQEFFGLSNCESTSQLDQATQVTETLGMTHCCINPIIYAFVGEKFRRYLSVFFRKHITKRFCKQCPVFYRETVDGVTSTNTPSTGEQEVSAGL
Experiment: MCP-1 Receptor Binding Assay in THP-1 Cells
Conditions: for pIC50: THP-1 cells, 0.5 nM 125I labeled MCP-1, 2 hours at 30° C., read-out: Mean Ligand Binding IC50 (inhibition of MCP-1 binding to CCR2); for inhibition at 25 µM: MCP-1 binding to CCR2, test concentration of 25 μM, unless indicated otherwise, read-out: % Inhibition Ligand Binding
Protocol: THP-1 cells were obtained from American Type Culture Collection (Manassas, Va., USA). […] The cell density was maintained between 0.5×10^6 cells/mL.
Cells were then harvested onto a filter plate, dried, and 20 μL of Microscint 20 was added to each well. Plates were counted in a TopCount NXT, Microplate Scintillation & Luminescence Counter (Perkin-Elmer Life Sciences, Inc. Boston, Mass.). Blank values (buffer only) were subtracted from all values and drug treated values were compared to vehicle treated values. 1 μM cold MCP-1 was used for nonspecific binding.

Structure (SMILES) | pIC50 | inhibition at 25 µM [%]
C[N+](C)(Cc1ccc(CNC(=O)C=Cc2cccc(Br)c2)cc1)C1CCCCC1 [Cpd 1, (4-{[3-(3-bromo-phenyl)-acryloylamino]-methyl}-benzyl)-cyclohexyl-dimethyl-ammonium iodide] | 5.64 | –
C[N+](C)(Cc1ccc(CNC(=O)c2cccc(Br)c2)cc1)C1CCCCC1 [Cpd 2, {4-[(3-bromo-benzoylamino)-methyl]-benzyl}-cyclohexyl-dimethyl-ammonium iodide] | 5.26 | –
C[N+](C)(Cc1ccc(CNC(=O)c2cccc(C(F)(F)F)c2)cc1)C1CCCCC1 [Cpd 3, cyclohexyl-dimethyl-{4-[(3-trifluoromethyl-benzoylamino)-methyl]-benzyl}-ammonium iodide] | 5.37 | –
C[N+](C)(Cc1ccc(CNC(=O)C=Cc2ccc(Cl)c(Cl)c2)cc1)C1CCOCC1 [Cpd 4, (4-{[3-(3,4-dichloro-phenyl)-acryloylamino]-methyl}-benzyl)-dimethyl-(tetrahydro-pyran-4-yl)-ammonium iodide] | 5.51 | –
C[N+](C)(Cc1ccc(CNC(=O)C=Cc2cccc(Br)c2)cc1)C1CCOCC1 [Cpd 5, (4-{[3-(3-bromo-phenyl)-acryloylamino]-methyl}-benzyl)-dimethyl-(tetrahydro-pyran-4-yl)-ammonium iodide] | 5.08 | –
C[N+](C)(Cc1cccc(NC(=O)c2cccc(Br)c2)c1)C1CCOCC1 [Cpd 8, [3-(3-bromo-benzoylamino)-benzyl]-dimethyl-(tetrahydro-pyran-4-yl)-ammonium iodide] | – | 34
C[N+](C)(Cc1ccc(NC(=O)c2cc(Cl)ccc2Cl)cc1)C1CCOCC1 [Cpd 11, [4-(2,5-dichloro-benzoylamino)-benzyl]-dimethyl-(tetrahydro-pyran-4-yl)-ammonium iodide] | 5.51 | –
C[N+](C)(Cc1ccc(NC(=O)c2c(Cl)cccc2Cl)cc1)C1CCOCC1 [Cpd 12, [4-(2,6-dichloro-benzoylamino)-benzyl]-dimethyl-(tetrahydro-pyran-4-yl)-ammonium iodide] | – | 38
C[N+](C)(Cc1ccc(NC(=O)c2ccc(Cl)c(Cl)c2)cc1)C[C@@H]1CCCO1 [Cpd 15, (2S)-[4-(3,4-dichloro-benzoylamino)-benzyl]-dimethyl-(tetrahydro-furan-2-ylmethyl)-ammonium iodide] | 5.70 | –
C[N+](C)(Cc1ccc(NC(=O)c2ccc(Cl)c(Cl)c2)cc1)C[C@H]1CCCO1 [Cpd 16, (2R)-[4-(3,4-dichloro-benzoylamino)-benzyl]-dimethyl-(tetrahydro-furan-2-ylmethyl)-ammonium iodide] | 6.07 | –
C[N+](C)(Cc1ccc(NC(=O)c2ccc(Cl)c(Cl)c2)cc1)C1CCSC1 (stereo not shown) [Cpd 19, [4-(3,4-dichloro-benzoylamino)-benzyl]-dimethyl-(tetrahydro-thien-3-yl)-ammonium iodide] | 8.30 | –
CC[N+](C)(Cc1ccc(NC(=O)c2ccc(Cl)c(Cl)c2)cc1)C1CCOCC1 (stereo not shown) [Cpd 21, [4-(3,4-dichloro-benzoylamino)-benzyl]-ethyl-methyl-(tetrahydro-pyran-4-yl)-ammonium iodide] | 6.82 | –
CCC[N+](C)(Cc1ccc(NC(=O)c2ccc(Cl)c(Cl)c2)cc1)C1CCOCC1 (stereo not shown) [Cpd 22, [4-(3,4-dichloro-benzoylamino)-benzyl]-methyl-propyl-(tetrahydro-pyran-4-yl)-ammonium iodide] | 5.80 | –
Cc1c(Cl)cccc1C(=O)Nc1ccc(C[N+](C)(C)C2CCOCC2)cc1 [Cpd 25, [4-(3-chloro-2-methyl-benzoylamino)-benzyl]-dimethyl-(tetrahydro-pyran-4-yl)-ammonium iodide] | – | 15
COc1ccc(C(=O)Nc2ccc(C[N+](C)(C)C3CCOCC3)cc2)cc1Cl [Cpd 27, [4-(3-chloro-4-methoxy-benzoylamino)-benzyl]-dimethyl-(tetrahydro-pyran-4-yl)-ammonium iodide] | 6.12 | –
Cc1ccc(C(=O)Nc2ccc(C[N+](C)(C)C3CCOCC3)cc2)cc1Cl [Cpd 28, [4-(3-chloro-4-methyl-benzoylamino)-benzyl]-dimethyl-(tetrahydro-pyran-4-yl)-ammonium iodide] | 6.34 | –

The remaining lines, values ahead:

pIC50 | inhibition at 25 µM [%] | Structure (SMILES)
5.47 | – | Cc1cc(Cl)ccc1C(=O)Nc1ccc(C[N+](C)(C)C2CCOCC2)cc1 [Cpd 32, [4-(4-chloro-2-methyl-benzoylamino)-benzyl]-dimethyl-(tetrahydro-pyran-4-yl)-ammonium iodide]
6.40 | – | C[N+](C)(Cc1ccc(NC(=O)c2ccc(Cl)c(C(F)(F)F)c2)cc1)C1CCOCC1 [Cpd 33, [4-(4-chloro-3-trifluoromethyl-benzoylamino)-benzyl]-dimethyl-(tetrahydro-pyran-4-yl)-ammonium iodide]
6.40 | – | Cc1ccc(Cl)cc1C(=O)Nc1ccc(C[N+](C)(C)C2CCOCC2)cc1 [Cpd 35, [4-(5-chloro-2-methyl-benzoylamino)-benzyl]-dimethyl-(tetrahydro-pyran-4-yl)-ammonium iodide]
4.99 | – | C[N+](C)(CCc1ccc(NC(=O)c2cccc(Br)c2)cc1)C1CCOCC1 [Cpd 37, {2-[4-(3-bromo-benzoylamino)-phenyl]-ethyl}-dimethyl-(tetrahydro-pyran-4-yl)-ammonium iodide]
5.30 | – | C[N+](C)(Cc1cccc(NC(=O)C=Cc2cccc(Br)c2)c1)C1CCOCC1 [Cpd 38, {3-[3-(3-bromo-phenyl)-acryloylamino]-benzyl}-dimethyl-(tetrahydro-pyran-4-yl)-ammonium iodide]
– | 87 | C[N+](C)(Cc1ccc(NC(=O)C=Cc2ccc(Cl)c(Cl)c2)cc1)C1CCSCC1 [Cpd 41, {4-[3-(3,4-dichloro-phenyl)-acryloylamino]-benzyl}-dimethyl-(tetrahydro-thiopyran-4-yl)-ammonium iodide]
5.24 | – | C[N+](C)(Cc1ccc(NC(=O)C=Cc2cc(F)cc(F)c2)cc1)C1CCOCC1 [Cpd 42, {4-[3-(3,5-difluoro-phenyl)-acryloylamino]-benzyl}-dimethyl-(tetrahydro-pyran-4-yl)-ammonium iodide]
6.47 | – | C[N+](C)(Cc1ccc(NC(=O)C=Cc2cccc(Br)c2)cc1)C1CCOCC1 [Cpd 43, {4-[3-(3-bromo-phenyl)-acryloylamino]-benzyl}-dimethyl-(tetrahydro-pyran-4-yl)-ammonium iodide]
4.84 | – | C[N+](C)(Cc1ccc(NC(=O)C=Cc2cccc(Br)c2)cc1)C1CCSCC1 [Cpd 44, {4-[3-(3-bromo-phenyl)-acryloylamino]-benzyl}-dimethyl-(tetrahydro-thiopyran-4-yl)-ammonium iodide]
6.59 | – | C[N+](C)(Cc1ccc(NC(=O)C=Cc2cccc(Cl)c2)cc1)C1CCOCC1 [Cpd 45, {4-[3-(3-chloro-phenyl)-acryloylamino]-benzyl}-dimethyl-(tetrahydro-pyran-4-yl)-ammonium iodide]
5.43 | – | C[N+](C)(Cc1ccc(NC(=O)C=Cc2ccc(Br)cc2)cc1)C1CCOCC1 [Cpd 47, {4-[3-(4-bromo-phenyl)-acryloylamino]-benzyl}-dimethyl-(tetrahydro-pyran-4-yl)-ammonium iodide]
5.08 | – | C[N+]1(Cc2ccc(CNC(=O)C=Cc3ccc(Cl)c(Cl)c3)cc2)CCCCC1 [Cpd 48, 1-(4-{[3-(3,4-dichloro-phenyl)-acryloylamino]-methyl}-benzyl)-1-methyl-piperidinium iodide]
